Reference: article PMC7767178 (International Journal of Molecular Sciences, 2020)
Where two headings read alike, the source gives them in different places. Positions of bridges follow the written chain, without caps; N, C: chain ends. Residues, ends and D or L forms follow the SMILES beside them.

Experiments:
[1] = tested on: S. aureus ATCC546
Method: (§1) Briefly, the tested strains including Gram-negative bacteria, Gram-positive bacteria, and fungi were cultured to the logarithmic growth phase, diluted to 10^5 CFU/mL, and added into 96-well plates (90 μL/well). Two-fold serial dilutions of peptides or antibiotics dissolved in PBS were added to each well (10 μL/well). […] All experiments were repeated three times.

[2] = tested on: A. veronii CL0901
Method: as §1

[3] = tested on: Aeromonas veronii ACCC61732
Method: as §1

[4] = tested on: S. hyicus NCTC10350
Method: as §1

[5] = tested on: Pseudomonas aeruginosa CICC21630
Method: as §1

[6] = tested on: S. aureus ATCC25923
Method: as §1

[7] = tested on: A. veronii ACCC61732 biofilms; experiment: Mouse model of catheter-associated biofilm infection, bacteria in catheter; assay type: in vivo, ICR mice; conditions: 5 μmol/kg peptide or CIP 24 h after catheter implantation, catheters collected after seven days, six mice per group
Method: Briefly, the catheter was cut into 1 cm segments; each piece was sterilized with 70% ethanol and then dried by air. Bacterial biofilms were developed on the catheter by placing individual segments into tubes containing 1.0 mL of a cell suspension (1 × 10^8 CFU/mL) in TSB. After incubation for 24 h at 37 °C, colonized catheters were recovered aseptically and rinsed with PBS to remove unbound bacteria. ICR female mice (20 ± 5 g) were anesthetized with isoflurane; the flanks were shaved and the skin was cleansed with alcohol. […] The incision was then covered with intact skin and closed with surgical suture line and the skin was disinfected. […] The untreated mice were used as the negative control and the mice with sterile catheter were used as the blank control. The mice were anesthetized and sacrificed after seven days. The catheters in the back of the mice were collected and thoroughly shaken in sterile PBS.

[8] = tested on: TNF-α; experiment: Serum cytokine, ELISA, peritonitis model; assay type: in vivo; conditions: 5 μmol/kg, 24 h after treatment, range over mice
Method: (§2) Sera and organs (livers, kidneys, spleens, and lungs) were collected from the mice at 24 h post-treatment. The organs were homogenized in sterile PBS to evaluate bacterial translocation by colony counting. The levels of cytokines (TNF-α, IL-1β, IL-6, and IL-10) in sera were detected using the ELISA kits.

[9] = tested on: IL-10; experiment: Serum cytokine, ELISA, peritonitis model; assay type: in vivo; conditions: 5 μmol/kg, 24 h after treatment, range over mice
Method: as §2

[10] = tested on: IL-6; experiment: Serum cytokine, ELISA, peritonitis model; assay type: in vivo; conditions: 5 μmol/kg, 24 h after treatment, range over mice
Method: as §2

[11] = tested on: IL-1β; experiment: Serum cytokine, ELISA, peritonitis model; assay type: in vivo; conditions: 5 μmol/kg, 24 h after treatment, range over mice
Method: as §2

[12] = tested on: A. veronii ACCC61732; experiment: Outer membrane permeabilization, NPN assay; assay type: cell-based; conditions: NPN fluorescence, 1×–4× MIC
Method: The outer membrane permeabilization abilities of peptides were determined using the fluorescent NPN assay. Mid-log phase A. veronii ACCC61732 was collected by centrifugation, washed twice, and then suspended in N-2-hydroxyethylpiperazine-n-2-ethane sulfonic acid (HEPES) buffer (pH 7.4) to an OD600nm = 0.4. […] Fluorescence intensity was recorded until no further increase with a microplate reader (excitation/emission, 328/438 nm).

[13] = tested on: A. veronii ACCC61732 genomic DNA; experiment: CD spectra of genomic DNA with peptides; assay type: binding; conditions: mass ratios 2.5 and 10.0, 10 min, room temperature
Method: CD spectra were performed to examine the secondary structure of genomic DNA from A. veronii ACCC61732 after incubation with peptides. […] The mixtures were loaded into a cuvette of 1.0-mm path length and scanned from 190 to 330 nm at 25 °C using a Pistar π-180 CD spectrometer (Applied Photophysics Ltd., Surry, UK).

[14] = tested on: A. veronii ACCC61732; experiment: Organ injury in peritonitis model, histology; assay type: in vivo, mice; conditions: peptides 5 μmol/kg, CIP 1 μmol/kg
Method: Livers, kidneys, spleens, and lungs were removed from mice at 24 h and five days post treatment to evaluate the organ injury. After washing with PBS, the organs were fixed in 4% paraform-aldehyde for 24 h at 4 °C, dehydrated by a graded series of ethanol (75‒95%), and infiltrated with xylene. The organs were then embedded in paraffin wax, sectioned, and stained with hematoxylin and eosin. Finally, the tissue samples were fixed and observed by the light microscope. The CIP-treated mice served as the positive control and the PBS group served as the negative control.

[15] = tested on: trypsin; conditions: pH 8
[16] = tested on: mouse erythrocytes; experiment: Hemolysis; assay type: cell-based; conditions: 256 μg/mL; 8% mouse erythrocyte suspension, 37 °C, 1 h, absorbance 540 nm
Method: To determine the hemolysis of peptides, eyeball blood was collected from 6-week-old SPF ICR mice. The blood was centrifuged at 4 °C for 10 min (1500 rpm), washed three times with 0.9% physiological saline, and diluted to 8% suspension. […] Red blood cell suspensions and peptide solutions (100 μL) were mixed in 96-well plates, centrifuged at 4 °C for 5 min (1500 rpm), and incubated at 37 °C for 1 h. The supernatant was added into a 96-well plate and the UV absorbance was measured at 540 nm using a microplate reader. Physiological saline and 0.1% Triton X-100 were used as 0% and 100% hemolytic controls, respectively. The hemolytic ratio was calculated as follows: Hemolysis (%) = [(Abspeptide − Abssaline)/(Abs0.1%Triton X-100 − Abssaline)] × 100% [38].

[17] = tested on: Salmonella typhimurium ATCC14028; assay type: cell-based
[18] = tested on: S. hyicus 437-2; assay type: cell-based
[19] = in vitro; conditions: mouse, 25% mouse serum
[20] = tested on: A. veronii ACCC61732; experiment: Mouse peritonitis model, bacterial translocation to organs; assay type: in vivo, ICR mice; conditions: 5 μmol/kg, 24 h post-treatment, colony counting
Method: as §2

## CC(C)[C@H](N)C(=O)N[C@@H](Cc1ccccc1)C(=O)N[C@@H](C)C(=O)N[C@@H](Cc1c[nH]c2ccccc12)C(=O)N[C@@H](CC(N)=O)C(=O)N[C@H](C(=O)N[C@H]1CSSC[C@@H](C(=O)N[C@@H](Cc2c[nH]cn2)C(=O)N[C@@H](CCCNC(=N)N)C(=O)N[C@@H](CCCNC(=N)N)C(=O)N[C@@H](C)C(=O)N[C@@H](CC(N)=O)C(N)=O)NC(=O)[C@H](C(C)C)NC(=O)[C@H](CCCNC(=N)N)NC(=O)[C@H](C(C)C)NC(=O)[C@H](C(C)C)NC(=O)[C@H](CC(N)=O)NC(=O)[C@H](CCCNC(=N)N)NC(=O)[C@H](Cc2ccc(O)cc2)NC(=O)[C@H](C(C)C)NC1=O)C(C)C [V112N6NH2] (H-VFAWNVCVYRNVVRVCHRRAN-NH2; disulfide 7-16 (inferred))
[1]; ATCC546
  MIC: 6.25 µM
[1]; S. aureus ATCC546, broth dilution, 37 °C, 16–18 h, three experiments
  MIC: 16 µg/mL
[2]
  MIC: 12.51 µM
[2]; A. veronii CL0901, broth dilution, 37 °C, 16–18 h, three experiments
  MIC: 32 µg/mL
[3]
  MIC: 6.25 µM
[3]; Aeromonas veronii ACCC61732 (MDR), broth dilution, 37 °C, 16–18 h, three experiments
  MIC: 16 µg/mL
[4]; NCTC10350
  MIC: 25.01 µM
[4]; S. hyicus NCTC10350, broth dilution, 37 °C, 16–18 h, three experiments
  MIC: 64 µg/mL
[5]; CICC21630
  MIC: 12.5 µM
[5]; Pseudomonas aeruginosa CICC21630, broth dilution, 37 °C, 16–18 h, three experiments
  MIC: 32 µg/mL
[6]; ATCC25923
  MIC: 12.5 µM
[6]; S. aureus ATCC25923, broth dilution, 37 °C, 16–18 h, three experiments
  MIC: 32 µg/mL
[7]
  decrease of bacterial cells in the catheter: 55.29%
[8]
  serum level of TNF-α: 52.05 to 59.01 pg/mL
[9]
  serum level of IL-10: 16.48 to 19.60 pg/mL
[10]
  serum level of IL-6: 133.08 to 150.00 pg/mL
[11]
  serum level of IL-1β: 16.41 to 24.86 pg/mL
[12]
  ability to penetrate the outer membrane: best ability to penetrate the outer membrane
[13]
  effect on CD spectrum of genomic DNA: do not affect the double helix of genomic DNA
[14]
  effect on injury of liver, spleen, kidney and lung: significantly less damaged
[15]
  MIC after trypsin treatment: lost their activity
[16]
  hemolysis: 4.59%
[17]; ATCC14028
  MIC: 6.25 µM
[17]; Salmonella typhimurium ATCC14028, broth dilution, 37 °C, 16–18 h, three experiments
  MIC: 16 µg/mL
[18]
  MIC: 12.5 µM
[18]; S. hyicus 437-2 (clinical isolate, pig farm), broth dilution, 37 °C, 16–18 h, three experiments
  MIC: 32 µg/mL
[19]
  remaining at 2 h: 81.4%
  remaining at 4.5 h: 32.1%
  remaining at 6 h: 19.1%
[20]
  reduction of bacteria in kidneys: 63.42%
  reduction of bacteria in livers: 52.71%
  reduction of bacteria in lungs: 83.57%
  reduction of bacteria in spleens: 63.87%
